Here are results for 27 compounds from US20250333406A1, “SULFONYL CYCLIC DERIVATIVES, AND COMPOSITIONS AND METHODS THEREOF” (Lysoway Therapeutics, Inc., priority 2023, published 2025).

Each structure is given as a SMILES string.

Broadly, the EC50 is the concentration giving half of the maximal effect.

For the assay, the system named is TFEB. The experiment in a line: TFEB Nuclear Translocation Assay. Format: cell-based. Particulars: read-out: EC50 of TFEB activation.
Turning to `O=S(=O)(n1nc(N2CCN(c3ncc(F)cn3)CC23CC3)c2c(Cl)cccc21)C12CC(C(F)(F)F)(C1)C2` [Compound 131, 4-chloro-3-[7-(5-fluoropyrimidin-2-yl)-4,7-diazaspiro [2.5]octan-4-yl]-1-[[3-(trifluoromethyl)-1-bicyclo [1.1.1]pentanyl]sulfonyl]indazole], the 50% effective concentration (EC50) is not below 10000 nM. Consider `O=S(=O)(n1nc(N2CCN(c3ncc(F)cn3)CC23CC3)c2c(Cl)cccc21)C12CC(F)(C1)C2` [Compound 132, 4-chloro-1-[(3-fluoro-1-bicyclo [1.1.1]pentanyl)sulfonyl]-3-[7-(5-fluoropyrimidin-2-yl)-4,7-diazaspiro [2.5]octan-4-yl]indazole], for which the EC50 is not below 10000 nM.

Take `CC(F)(F)c1ccc(S(=O)(=O)n2nc(N3CCN(c4ncc(F)cn4)CC34CC4)c3c(F)cccc32)cc1` [Compound 133, 1-[4-(1,1-difluoroethyl)phenyl]sulfonyl-4-fluoro-3-[7-(5-fluoropyrimidin-2-yl)-4,7-diazaspiro [2.5]octan-4-yl]indazole]: the EC50 was not above 1000 nM. Turning to `CC(F)(F)c1ccc(S(=O)(=O)n2nc(N3CCN(c4ncc(F)cn4)CC34CC4)c3c(O)cccc32)cc1` [Compound 134, 1-[4-(1,1-difluoroethyl)phenyl]sulfonyl-3-[7-(5-fluoropyrimidin-2-yl)-4,7-diazaspiro [2.5]octan-4-yl]indazol-4-ol], the half-maximal effective concentration (EC50) was not below 10000 nM.

Consider `CC(F)(F)c1ccc(S(=O)(=O)n2nc(N3CCN(c4ncc(F)cn4)CC34CC4)c3c(Cl)cccc32)cn1` [Compound 135, 4-chloro-1-[[6-(1,1-difluoroethyl)-3-pyridyl]sulfonyl]-3-[7-(5-fluoropyrimidin-2-yl)-4,7-diazaspiro [2.5]octan-4-yl]indazole], for which the EC50 is not above 1000 nM.

Take `CC(F)(F)c1cnc(-n2nc(N3CCN(c4ncc(F)cn4)CC34CC4)c3c(Cl)cccc32)nc1` [Compound 136, 4-chloro-1-[5-(1,1-difluoroethyl)pyrimidin-2-yl]-3-[7-(5-fluoropyrimidin-2-yl)-4,7-diazaspiro [2.5]octan-4-yl]indazole]: the EC50 is not below 10000 nM. As to `CC(F)(F)c1ncc(S(=O)(=O)n2nc(N3CCN(c4ncc(F)cn4)CC34CC4)c3c(Cl)cccc32)cn1` [Compound 137, 4-chloro-1-[2-(1,1-difluoroethyl)pyrimidin-5-yl]sulfonyl-3-[7-(5-fluoropyrimidin-2-yl)-4,7-diazaspiro [2.5]octan-4-yl]indazole], the 50% effective concentration (EC50) is not above 1000 nM. Regarding `CC1COCC(C)N1c1nn(S(=O)(=O)c2ccn(S(=O)(=O)C(C)C)c2)c2cccc(Cl)c12` (stereo not drawn) [Compound 138, 4-[4-chloro-1-(1-isopropylsulfonylpyrrol-3-yl)sulfonyl-indazol-3-yl]-3,5-dimethyl-morpholine], the EC50 was not above 1000 nM. Turning to `CC(C)S(=O)(=O)n1ccc(S(=O)(=O)n2nc(N3CCCC4(CC4)C3)c3c(Cl)cccc32)c1` [Compound 139, 3-(5-azaspiro [2.5]octan-5-yl)-4-chloro-1-(1-isopropylsulfonylpyrrol-3-yl) sulfonyl-indazole], the EC50 was not above 1000 nM. Consider `CC(C)S(=O)(=O)n1ccc(S(=O)(=O)n2nc(N3CCN(c4ncc(Cl)cc4F)CC34CC4)c3c(Cl)cccc32)c1` [Compound 140, 4-chloro-3-[7-(5-chloro-3-fluoro-2-pyridyl)-4,7-diazaspiro [2.5]octan-4-yl]-1-(1-isopropylsulfonylpyrrol-3-yl) sulfonyl-indazole], for which the EC50 is not above 1000 nM.

As for `CC(C)S(=O)(=O)n1ccc(S(=O)(=O)n2nc(N3CCN(c4ncc(F)cc4F)CC34CC4)c3c(Cl)cccc32)c1` [Compound 141, 4-chloro-3-[7-(3,5-difluoro-2-pyridyl)-4,7-diazaspiro [2.5]octan-4-yl]-1-(1-isopropylsulfonylpyrrol-3-yl) sulfonyl-indazole], the EC50 was not above 1000 nM. In the case of `CC(C)S(=O)(=O)n1ccc(S(=O)(=O)n2nc(N3CCN(c4ncc(F)cc4F)CC34CC4)c3c(Cl)ccc(F)c32)c1` [Compound 142, 4-chloro-3-[7-(3,5-difluoro-2-pyridyl)-4,7-diazaspiro [2.5]octan-4-yl]-7-fluoro-1-(1-isopropylsulfonylpyrrol-3-yl) sulfonyl-indazole], the concentration for a half-maximal effect (EC50) was not above 1000 nM. As to `O=S(=O)(c1ccn(S(=O)(=O)C2CC2)c1)n1nc(N2CCN(c3ncc(F)cc3F)CC23CC3)c2c(Cl)ccc(F)c21` [Compound 143, 4-chloro-1-((1-(cyclopropylsulfonyl)-1H-pyrrol-3-yl)sulfonyl)-3-(7-(3,5-difluoropyridin-2-yl)-4,7-diazaspiro [2.5]octan-4-yl)-7-fluoro-1H-indazole], the EC50 is not above 1000 nM. For `CC(C)S(=O)(=O)n1ccc(S(=O)(=O)n2nc(N3CCN(c4ncc(F)cc4F)CC34CC4)c3c(F)ccc(F)c32)c1` [Compound 144, 3-[7-(3,5-difluoro-2-pyridyl)-4,7-diazaspiro [2.5]octan-4-yl]-4,7-difluoro-1-(1-isopropylsulfonylpyrrol-3-yl) sulfonyl-indazole], the EC50 is not above 1000 nM. Regarding `O=S(=O)(c1ccn(S(=O)(=O)C2CC2)c1)n1nc(N2CCN(c3ncc(F)cc3F)CC23CC3)c2c(F)ccc(F)c21` [Compound 145, 1-(1-cyclopropylsulfonylpyrrol-3-yl) sulfonyl-3-[7-(3,5-difluoro-2-pyridyl)-4,7-diazaspiro [2.5]octan-4-yl]-4,7-difluoro-indazole], the concentration for a half-maximal effect (EC50) is not above 1000 nM. In the case of `O=S(=O)(c1ccn(S(=O)(=O)C2CC2)c1)n1nc(N2CCN(c3ncc(Cl)cc3F)CC23CC3)c2c(F)ccc(F)c21` [Compound 146, 3-[7-(5-chloro-3-fluoro-2-pyridyl)-4,7-diazaspiro [2.5]octan-4-yl]-1-(1-cyclopropylsulfonylpyrrol-3-yl) sulfonyl-4,7-difluoro-indazole], the EC50 is not above 1000 nM. Next, `CC(C)S(=O)(=O)n1ccc(S(=O)(=O)n2nc(N3CCN(c4ncc(Cl)cc4F)CC34CC4)c3c(Cl)ccc(F)c32)c1` [Compound 147, 4-chloro-3-[7-(5-chloro-3-fluoro-2-pyridyl)-4,7-diazaspiro [2.5]octan-4-yl]-7-fluoro-1-(1-isopropylsulfonylpyrrol-3-yl) sulfonyl-indazole]: not above 1000 nM. Take `CC(C)S(=O)(=O)n1ccc(S(=O)(=O)n2nc(N3CCN(c4ncc(Cl)cc4F)CC34CC4)c3c(F)ccc(F)c32)c1` [Compound 148, 3-[7-(5-chloro-3-fluoro-2-pyridyl)-4,7-diazaspiro [2.5]octan-4-yl]-4,7-difluoro-1-(1-isopropylsulfonylpyrrol-3-yl) sulfonyl-indazole]: the EC50 was not above 1000 nM. As for `CC(C)S(=O)(=O)n1ccc(S(=O)(=O)n2nc(N3CCN(c4ncc(F)cn4)CC34CC4)c3c(F)ccc(F)c32)c1` [Compound 149, 4,7-difluoro-3-(7-(5-fluoropyrimidin-2-yl)-4,7-diazaspiro [2.5]octan-4-yl)-1-((1-(isopropylsulfonyl)-1H-pyrrol-3-yl)sulfonyl)-1H-indazole], the EC50 is not above 1000 nM.

As for `CC(C)S(=O)(=O)n1ccc(S(=O)(=O)n2nc(N3CCN(c4ncc(Cl)cc4F)CC34CC4)c3c(Cl)cc(F)cc32)c1` [Compound 150, 4-chloro-3-(7-(5-chloro-3-fluoropyridin-2-yl)-4,7-diazaspiro [2.5]octan-4-yl)-6-fluoro-1-((1-(isopropylsulfonyl)-1H-pyrrol-3-yl)sulfonyl)-1H-indazole], the EC50 is not above 1000 nM. For `CC(C)S(=O)(=O)n1ccc(S(=O)(=O)n2nc(N3CCN(c4ncc(Cl)cc4F)CC34CC4)c3c(Cl)cncc32)c1` [Compound 151, 4-chloro-3-[7-(5-chloro-3-fluoro-2-pyridyl)-4,7-diazaspiro [2.5]octan-4-yl]-1-(1-isopropylsulfonylpyrrol-3-yl) sulfonyl-pyrazolo [3,4-c]pyridine], the EC50 was not above 1000 nM.

On to `CC(C)S(=O)(=O)n1ccc(S(=O)(=O)n2nc(N3CCN(c4ncc(Cl)cc4F)CC34CC4)c3c(Cl)ccnc32)c1` [Compound 152, 4-chloro-3-[7-(5-chloro-3-fluoro-2-pyridyl)-4,7-diazaspiro [2.5]octan-4-yl]-1-(1-isopropylsulfonylpyrrol-3-yl) sulfonyl-pyrazolo [3,4-b]pyridine], for which the EC50 was not above 1000 nM. As for `CC(C)S(=O)(=O)n1ccc(S(=O)(=O)n2nc(N3CCN(c4ncc(Cl)cc4F)CC34CC4)c3c(Cl)nccc32)c1` [Compound 153, 4-chloro-3-(7-(5-chloro-3-fluoropyridin-2-yl)-4,7-diazaspiro[2.5]octan-4-yl)-1-((1-(isopropylsulfonyl)-1H-pyrrol-3-yl)sulfonyl)-1H-pyrazolo[4,3-c]pyridine], the EC50 was not above 1000 nM. Turning to `CC(C)S(=O)(=O)n1ccc(S(=O)(=O)n2nc(N3CCN(c4ncc(Cl)cn4)CC34CC4)c3c(Cl)cc(F)cc32)c1` [Compound 154, 4-chloro-3-(7-(5-chloropyrimidin-2-yl)-4,7-diazaspiro [2.5]octan-4-yl)-6-fluoro-1-((1-(isopropylsulfonyl)-1H-pyrrol-3-yl)sulfonyl)-1H-indazole], the EC50 was not above 1000 nM. As to `CC(C)S(=O)(=O)n1ccc(S(=O)(=O)n2nc(N3CCN(c4ncc(F)cn4)CC34CC4)c3c(Cl)cc(F)cc32)c1` [Compound 155, 4-chloro-6-fluoro-3-(7-(5-fluoropyrimidin-2-yl)-4,7-diazaspiro [2.5]octan-4-yl)-1-((1-(isopropylsulfonyl)-1H-pyrrol-3-yl)sulfonyl)-1H-indazole], the EC50 is not above 1000 nM. Consider `CC(C)S(=O)(=O)n1ccc(S(=O)(=O)n2nc(N3CCN(c4nc(Cl)ns4)CC34CC4)c3c(Cl)cc(F)cc32)c1` [Compound 156, 3-chloro-5-[4-[4-chloro-6-fluoro-1-(1-isopropylsulfonylpyrrol-3-yl)sulfonyl-indazol-3-yl]-4,7-diazaspiro [2.5]octan-7-yl]-1,2,4-thiadiazole], for which the EC50 is not above 1000 nM. In the case of `CC(C)S(=O)(=O)n1ccc(S(=O)(=O)n2nc(N3CCN(c4ncc(Cl)s4)CC34CC4)c3c(Cl)cc(F)cc32)c1` [Compound 157, 5-chloro-2-(4-(4-chloro-6-fluoro-1-((1-(isopropylsulfonyl)-1H-pyrrol-3-yl)sulfonyl)-1H-indazol-3-yl)-4,7-diazaspiro [2.5]octan-7-yl) thiazole], the EC50 was not above 1000 nM.
